According to paper PMC5297880 (Clinical Pharmacology in Drug Development, 2016):
Where two headings read alike, the source gives them in different places.

How the values were obtained:
[1] = type: in vivo, human; details: for AUCτ geometric least-squares mean ratio (90%CI) / Cmax geometric least-squares mean ratio (90%CI): lopinavir/ritonavir plus isavuconazole to isavuconazole alone; for AUC: AUCτ, day 13 (24 hours), mean (SD)
[2] = Safety: treatment-emergent adverse events in healthy subjects; type: in vivo, human
CYP2B6 [3] = details: human liver microsomes; S-mephenytoin demethylation; P < .01; ref data on file; cited from earlier work
CYP2C8 [4] = details: human liver microsomes; paclitaxel hydroxylation; P < .05; ref data on file; cited from earlier work
CYP3A4 [5] = details: CYP3A4-expressing human liver microsomes; cited from earlier work
CYP3A5 = details: CYP3A5-expressing human liver microsomes; cited from earlier work
CYP2B6 [6] = details: CYP2B6-expressing human liver microsomes; cited from earlier work
CYP2C8 [7] = details: CYP2C8-expressing human liver microsomes; cited from earlier work
CYP3A7 = details: CYP3A7-expressing human liver microsomes; cited from earlier work
CYP3A4 [8] = details: cultured human hepatocytes; cited from earlier work
CYP2B6 [9] = details: cultured human hepatocytes; cited from earlier work
UGT1A1 = details: read-out: IC50 for 17β-estradiol 3-glucuronidation [UGT1A1]; human liver microsomes; cited from earlier work
UGT1A9 = details: read-out: IC50 for propofol glucuronidation [UGT1A9]; human liver microsomes; cited from earlier work
UGT2B7 = details: read-out: IC50 for morphine 3-glucuronidation [UGT2B7]; human liver microsomes; cited from earlier work
P-gp = details: read-out: IC50 P-gp inhibition; [3H]digoxin substrate; ref data on file; cited from earlier work
OCT2 = details: [14C]metformin substrate, ref data on file, cited from earlier work
MATE1 = details: read-out: IC50 MATE1 inhibition; [14C]metformin substrate; ref data on file; cited from earlier work
[10] = type: in vivo, human; details: for decrease in mean AUCτ in presence vs absence of isavuconazole / decrease in mean Cmax in presence vs absence of isavuconazole: Part 2, isavuconazole 200 mg; for AUC / Cmax: both, human, plasma, oral; for AUC: AUCτ, day 13 (12 hours), mean (SD); for Cmax: day 13, mean (SD)
[11] = Part 2, lopinavir/ritonavir 400/100 mg + isavuconazole 200 mg, n = 16
[12] = Part 2, lopinavir/ritonavir 400/100 mg alone, n = 18
[13] = Part 2, lopinavir/ritonavir plus isavuconazole to lopinavir/ritonavir alone

## C[C@@H](c1nc(-c2ccc(C#N)cc2)cs1)[C@](O)(Cn1cncn1)c1cc(F)ccc1F [Isavuconazole, isavuconazole]
[1]; Part 1 (isavuconazole 100 mg)
  AUCτ geometric least-squares mean ratio (90%CI): 213 (174, 262) %
  Cmax geometric least-squares mean ratio (90%CI): 196 (155, 248) %
[1]; Part 1, isavuconazole 100 mg
  increase in mean AUCτ in presence vs absence of lopinavir/ritonavir: 113%
  increase in mean Cmax in presence vs absence of lopinavir/ritonavir: 96%
[1]; Part 2 (isavuconazole 200 mg)
  AUCτ geometric least-squares mean ratio (90%CI): 196 (164, 235) %
  Cmax geometric least-squares mean ratio (90%CI): 174 (146, 208) %
[1]; Part 2, isavuconazole 200 mg
  increase in mean AUCτ in presence vs absence of lopinavir/ritonavir: 96%
  increase in mean Cmax in presence vs absence of lopinavir/ritonavir: 74%
[1]; Part 2, isavuconazole 200 mg + lopinavir/ritonavir, day 13, median (range)
  Tmax: 3.0 (1.0‐4.0) hours
[1]; both, human, plasma, oral, 100 mg
  Tmax: 3 h
[1]; both, human, plasma, oral, 200 mg
  Tmax: 3 h
[1]; both, human, plasma, oral, Part 1, isavuconazole 100 mg + lopinavir/ritonavir 400/100 mg BID, n = 6
  AUC: 116000 ng·h/mL
[1]; both, human, plasma, oral, Part 2, isavuconazole 200 mg + lopinavir/ritonavir 400/100 mg BID, n = 16
  AUC: 222000 ng·h/mL
[2]; Part 1 (isavuconazole 100 mg), all mild
  subjects who experienced TEAEs: 2 (33.3%) n (%)
[2]; Part 2
  TEAEs overall, subjects: 11 (61.1%) n (%)
[2]; Part 2, text
  subjects with TEAEs in system organ class gastrointestinal disorders: 16.7%
CYP2B6 [3]
  correlation (r) of isavuconazole metabolism with CYP2B6 activity: 0.65
CYP2C8 [4]
  correlation (r) of isavuconazole metabolism with CYP2C8 activity: 0.57
CYP3A4 [5]
  % remaining: 33.8 % remaining
CYP3A5
  % remaining: 68.4 % remaining
CYP2B6 [6]
  % remaining: > 98 % remaining
CYP2C8 [7]
  % remaining: > 98 % remaining
CYP3A7
  % remaining: > 98 % remaining
CYP3A4 [8]
  increase of CYP3A4 activity: 3.4 fold
  increase of CYP3A4 mRNA: 6.4 fold
CYP2B6 [9]
  increase of CYP2B6 activity: 13.4 fold
  increase of CYP2B6 mRNA: 11.4 fold
UGT1A1
  IC50: 9 µM
UGT1A9
  IC50: 19 µM
UGT2B7
  IC50: 44 µM
P-gp
  IC50: 25.7 µM
OCT2; read-out: IC50 OCT2 inhibition
  IC50: 1.97 µM
OCT2; read-out: Ki OCT2 inhibition
  Ki: 0.69 µM
MATE1
  IC50: 6.31 µM

## CC(C)c1nc(CN(C)C(=O)N[C@H](C(=O)N[C@@H](Cc2ccccc2)C[C@H](O)[C@H](Cc2ccccc2)NC(=O)OCc2cncs2)C(C)C)cs1 [Ritonavir, ritonavir]
[10]
  decrease in mean AUCτ in presence vs absence of isavuconazole: 31%
  decrease in mean Cmax in presence vs absence of isavuconazole: 33%
[10]; [11]
  AUC: 4000 ng·h/mL
[10]; [12]
  AUC: 5500 ng·h/mL
[10]; Part 2, lopinavir/ritonavir + isavuconazole
  Cmax: 800 ng/mL
[10]; Part 2, lopinavir/ritonavir alone
  Cmax: 1200 ng/mL

## Cc1cccc(C)c1OCC(=O)N[C@@H](Cc1ccccc1)[C@@H](O)C[C@H](Cc1ccccc1)NC(=O)[C@H](C(C)C)N1CCCNC1=O [Lopinavir, lopinavir]
[10]
  decrease in mean AUCτ in presence vs absence of isavuconazole: 27%
  decrease in mean Cmax in presence vs absence of isavuconazole: 23%
[10]; [13]
  AUCτ geometric least-squares mean ratio (90%CI): 73 (56, 96) %
  Cmax geometric least-squares mean ratio (90%CI): 77 (62, 95) %
[10]; [11]
  AUC: 73300 ng·h/mL
[10]; [12]
  AUC: 91000 ng·h/mL
